Assay results reported in the SangsterLogP compilation.

Point of comparison: `COc1cc(Cl)c(Br)c(Cl)c1`, logP 4.39. Against it:
- COc1c(Br)cccc1Br — lower, 3.42
- COc1ccc(Br)cc1Cl — lower, 3.77
- COc1ccc(Br)cc1 — lower, 3.15
- COc1c(Cl)ccc(Cl)c1Cl — lower, 3.76
- COc1cc(Br)c(Cl)cc1Cl — within 0.2 log units, 4.47
- COc1c(Br)c(Cl)c(Cl)c(Cl)c1Br — higher, 5.55
- COc1c(Br)c(Br)c(Br)c(Br)c1Br — higher, 5.43
- COc1ccccc1Br — lower, 2.87
- COc1ccc(Cl)cc1Br — lower, 3.59
- COc1ccc(Br)cc1Br — lower, 3.75
- COc1cc(Cl)cc(Cl)c1Br — the same, 4.39
- COc1ccccc1Cl — lower, 2.72
- COc1ccc(Cl)cc1Cl — lower, 3.46
- COc1c(Cl)c(Cl)c(Br)c(Cl)c1Cl — higher, 5.26
- COc1c(Cl)c(Cl)cc(Br)c1Br — higher, 5.29
- COc1c(Br)ccc(Cl)c1Cl — within 0.2 log units, 4.47
- COc1c(Cl)c(Cl)c(Cl)c(Cl)c1Cl — higher, 5.16
- COc1ccc(Br)c(Cl)c1Cl — within 0.2 log units, 4.47
- COc1c(Cl)cc(Cl)cc1Br — lower, 4
- COc1cc(Cl)c(Cl)cc1Cl — lower, 3.95
- COc1ccc(Cl)c(Cl)c1 — lower, 3.55
- COc1cccc(Cl)c1Cl — lower, 3.3
- COc1c(Br)cc(Br)c(Cl)c1Br — higher, 5.29
- COc1c(Br)cc(Br)c(Cl)c1Cl — higher, 4.97
- COc1cc(Cl)ccc1Cl — lower, 3.27
- COc1cc(Cl)cc(Cl)c1Cl — lower, 4.05
- COc1cccc(Br)c1 — lower, 3.23
- COc1c(Cl)cccc1Br — lower, 3.44
- COc1c(Cl)cc(Br)c(Cl)c1Cl — higher, 4.66
- COc1c(Cl)c(Cl)cc(Br)c1Cl — higher, 4.66
- COc1cc(Cl)c(Cl)c(Cl)c1Br — higher, 4.97
- COc1cc(Cl)c(Br)c(Cl)c1Br — higher, 5.29
- COc1cc(Cl)c(Cl)c(Cl)c1Cl — within 0.2 log units, 4.57
- COc1c(Br)cc(Cl)c(Cl)c1Cl — higher, 4.64
- COc1c(Br)cc(Cl)cc1Br — within 0.2 log units, 4.33
- COc1c(Cl)cccc1Cl — lower, 3.19
- COc1c(Cl)cc(Br)cc1Cl — lower, 4.02
